Experimental data as given in patent US20090306045A1, “Inhibition of Glycogen Synthase Kinase and Methods of Treating Autoimmune or Immune Inflammatory Disease” (priority 2005, published 2009).
Entries after “also recorded” stand apart in the source; their conditions may differ.

Tests used:
β-catenin [1] = assay: Cytosolic β-catenin accumulation in murine DCs (cell fractionation, Western blot); format: cell-based; conditions: murine immature DCs, different doses
Procedure: BMDCs were treated with either LPS or different doses of SB216763. CD11c^+ DCs were then fractionated into membrane and cytosolic fractions, followed by immunoblotting with antibodies against β-catenin (top) and E-cadherin (middle). Akt was probed as a loading control (bottom).
SB 216763 was purchased from Tocris Cookson Inc. (Ellisville, Mo.). […] Cell Culture and purification of DC, OT-I and OT-II T cells Mouse DM-derived CD11c^+ DCs were isolated using anti-CD11c-conjugated beads and columns (Miltenyi Biotech) according to the manufacturer's protocol. The resulted CD11c^+ DCs were then resuspended in the same culture media at 5-10×10^5 cells/ml; these cells were in single cell suspension and thus referred as cluster-disrupted cells. […] Cell fractionation, Immunoprecipitation and Western blotting Cells were homogenized in hypotonic buffer (10 mM HEPES-KOH pH 7.4, 1.5 mM MgCl2, 10 mM KCl, 0.5 mM DTT) with proteinase and phosphatase inhibitors by passing through 30 gauge needles for 10 times. Postnuclear fractions were centrifuged at 45,000 rpm for 45 min to separate membrane and cytosol fractions. Total cell lysates were obtained with 1% NP-40 lysis buffer (1% Nonidet P-40, 150 mM NaCl, 20 mM Tris, and ImM EDTA (pH 7.5)) supplemented with proteinase and phosphatase inhibitors.

β-catenin [2] = assay: Cytosolic β-catenin accumulation in human DCs (cell fractionation, Western blot); format: cell-based; conditions: human DCs (not shown)
CD11c+ DCs = assay: DC maturation of murine BMDCs, CD86 expression by FACS; format: cell-based, mouse
Procedure: BMDCs were prepared as described and CD11c^+ DCs were purified at day 6 and replated at 5×10^5 cells/ml.
CD11c^+ DCs after different stimuli were subject to FACS analysis.
SB 216763 was purchased from Tocris Cookson Inc. (Ellisville, Mo.). […] Flow Cytometry Assays Cells were stained for 30 min on ice with primary antibody and if necessary secondary antibody, washed, and then evaluated on a FACSCalibur™ (Becton Dickinson). […] Cell Culture and purification of DC, OT-I and OT-II T cells Mouse DM-derived CD11c^+ DCs were isolated using anti-CD11c-conjugated beads and columns (Miltenyi Biotech) according to the manufacturer's protocol. The resulted CD11c^+ DCs were then resuspended in the same culture media at 5-10×10^5 cells/ml; these cells were in single cell suspension and thus referred as cluster-disrupted cells.

DCs [3] = assay: MHC class II redistribution in DCs by immunofluorescence; format: cell-based; conditions: immunofluorescence (not shown)
DCs [4] = assay: Cytokine and chemokine production by treated DCs; format: cell-based
Excerpt: The ability of the GSK3β inhibitor SB216763 to induce maturation was particularly striking. While it is possible this effect was limited to the dramatic increase in free β-catenin, GSK3β also has other targets. For example, by inhibiting GSK3β-mediated phosphorylation of NF-AT, this transcriptional activator would be more readily translocated into the nucleus, possibly synergyzing with β-catenin (Crabtree and Olson, 2002). Other potential mediators (eg Hedgehog, p53, c-myc) might also be affected (Doble and Woodgett, 2003). […] Cytokine and chemokine multiplex analysis The levels of cytokines and chemokines were measured with Luminex suspension array technology. Supernatants were collected and frozen at −80° C. For human CD34^+-derived DCs, cell culture supernatants were then analyzed using the Beadlyte cytokine assay kit (Upstate) with manufacturer's protocol. For mouse cytokines, supernatants were analyzed using the Bio-Plex cytokine assay kit and supporting reagents (BioRad) following manufacturer's procedures.

active β-catenin = assay: Active β-catenin by sequential immunoprecipitation and immunoblotting in BMDCs; format: cell-based; conditions: bone marrow-derived DC cultures
Excerpt: Bone marrow-derived DC cultures were either treated with LPS, SB216763 or cluster disruption (CD). CD11c^+ cells were purified and same number of cells were used to make cell lysates as described. Cell lysates were then subject to sequential immunoprecipitation with antibodies against E-cadherin and β-catenin, followed by immunoblotting with antibodies against E-cadherin (top), active β-catenin (middle) and total β-catenin (bottom).
BMDCs were either treated with LPS or CD and cell lysates from CD11c^+ DCs were subject to sequential immunoprecipitation with antibodies against E-cadherin and β-catenin, followed by immunoblotting with antibodies against E-cadherin (top), active β-catenin (middle) and total β-catenin (bottom).
Reagents and Antibodies Rat anti-E-cadherin, mouse anti-β-catenin, mouse anti-p120 catenin were purchased from BD Transduction Laboratories (Lexington, Calif.). Both mouse anti-E-cadherin (HECD-1 and SHE78-7) and rat anti-E-cadherin (ECCD-1 and 2) monoclonal antibodies were obtained from Zymed (San Francisco, Calif.). Rat monoclonal anti-E-cadherin and rabbit polyclonal β-catenin were obtained from Sigma-Aldrich. […] Flow Cytometry Assays Cells were stained for 30 min on ice with primary antibody and if necessary secondary antibody, washed, and then evaluated on a FACSCalibur™ (Becton Dickinson). […]

GSK3β = GSK3β (Homo sapiens, UniProt P49841); conditions: cited from earlier work
Sequence of GSK3β (P49841 whole entry, species assumed): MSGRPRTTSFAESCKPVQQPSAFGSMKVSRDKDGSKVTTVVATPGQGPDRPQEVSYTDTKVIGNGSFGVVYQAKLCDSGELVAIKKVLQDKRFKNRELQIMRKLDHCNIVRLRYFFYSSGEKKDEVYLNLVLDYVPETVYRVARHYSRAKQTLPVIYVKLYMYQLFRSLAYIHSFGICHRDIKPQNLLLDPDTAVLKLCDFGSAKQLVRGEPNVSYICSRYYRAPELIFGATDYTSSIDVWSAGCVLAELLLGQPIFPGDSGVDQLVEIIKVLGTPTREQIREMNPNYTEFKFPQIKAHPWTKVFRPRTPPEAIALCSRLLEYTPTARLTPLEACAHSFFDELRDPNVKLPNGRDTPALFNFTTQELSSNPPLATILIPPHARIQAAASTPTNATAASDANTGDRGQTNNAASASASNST

Cn1cc(C2=C(c3ccc(Cl)cc3Cl)C(=O)NC2=O)c2ccccc21 [SB216763]
accumulation of β-catenin in the cytosol (β-catenin [1]): dose-dependent accumulation of β-catenin in the cytosol; also recorded: Dose-dependent accumulation of cytosolic β-catenin
accumulation of β-catenin in the cytosol (β-catenin [2]): dose-dependent accumulation of β-catenin in the cytosol
effectiveness at triggering DC maturation compared with LPS and cluster disruption (CD) (CD11c+ DCs; 10 μM): nearly as effective as LPS at triggering DC maturation, and slightly more effective than CD
mature population (percentage of cells expressing high CD86) (CD11c+ DCs; added to immature DCs, different doses): increased in a dose-dependent manner; also recorded: results in DC maturation
mature DC phenotype, MHC class II distribution (DCs [3]): MHC class II molecules redistributing from lysosomes to the plasma membrane
production of inflammatory cytokines (DCs [4]): failed to induce the production of inflammatory cytokines
formation of chemokines (eg IP10, MCP-1, MIP-α, CXCL8) (DCs [4]; compared with cluster disruption): induced the formation of the same array of chemokines as did CD
activation of β-catenin (active, non-phosphorylated β-catenin) (active β-catenin): Resulted in Activation of β-Catenin
selectivity as GSK3β inhibitor (GSK3β): selective inhibitor of GSK3β
